System: healthy adult subjects
Assay: Part 2 MAD: treatment-emergent adverse events, once daily for 10 days (N = 6 per dose)
Format: in vivo, human
Text: Part 2 of the study is a MAD evaluation in healthy subjects consisting of 4 cohorts: Cohorts 1-4 received powder-in-capsule or matching placebo. Dose levels were as follows:
Safety assessments were made. A plasma PK sample was collected pre-dose on Day 8.

For `CS(=O)(=O)N[C@H]1CCCN2C(=O)COc3ccccc3C3CCC(CC3)OCC12` (stereo partly drawn) [Compound A, N-[(4S,4aR,7α,10α)-1,2,3,4,4a,5,7,8,9,10,16,17-dodecahydro-17-oxo-7,10-ethanopyrido[1,2-d][1,7,4]benzodioxaazacyclotridecin-4-yl]methanesulfonamide], the “AE Leading to Study Drug Discontinuation” value (3 mg) was 0 n, the “Any SAEs” value (3 mg) was 0 n and the “Any TEAE” value (3 mg) was 2 n. The Death (3 mg) was 0 n, the “TEAE Abdominal pain” value (3 mg) was 0 n and the “TEAE Abdominal pain lower” value (3 mg) was 0 n. The “TEAE Abnormal dreams” value (3 mg) was 1 n, the “TEAE Back pain” value (3 mg) was 0 n and the “TEAE Balance disorder” value (3 mg) was 0 n. For the same molecule, the “TEAE Blood pressure systolic increased” value (3 mg) was 0 n, the “TEAE Cough” value (3 mg) was 1 n and the “TEAE Depressed mood” value (3 mg) was 0 n. For the same molecule, the “TEAE Diarrhoea” value (3 mg) was 0 n, the “TEAE Dizziness” value (3 mg) was 0 n and the “TEAE Euphoric mood” value (3 mg) was 0 n. For the same molecule, the “TEAE Feeling of relaxation” value (3 mg) was 0 n, the “TEAE Headache” value (3 mg) was 0 n and the “TEAE Hypervigilance” value (3 mg) was 0 n. For the same molecule, the “TEAE Insomnia” value (3 mg) was 0 n, the “TEAE Nocturia” value (3 mg) was 0 n and the “TEAE Photophobia” value (3 mg) was 0 n. For the same molecule, the “TEAE Pollakiuria” value (3 mg) was 0 n, the “TEAE Salivary hypersecretion” value (3 mg) was 0 n and the “TEAE Visual impairment” value (3 mg) was 0 n. For the same molecule, the “TEAE Vomiting” value (3 mg) was 0 n, the “TEAE by Highest Relationship: Not Related” value (shortened to “TEAE … Not Related”) (3 mg) was 2 n and the “TEAE by Highest Relationship: Related” value (3 mg) was 0 n. The “TEAE by Highest Severity: Mild” value (3 mg) was 2 n, the “TEAE by Highest Severity: Moderate” value (3 mg) was 0 n and the “TEAE by Highest Severity: Severe” value (3 mg) was 0 n. The “AE Leading to Study Drug Discontinuation” value (8 mg) was 0 n, the “Any SAEs” value (8 mg) was 0 n and the “Any TEAE” value (8 mg) was 5 n. For the same molecule, the Death (8 mg) was 0 n, the “TEAE Abdominal pain” value (8 mg) was 1 n and the “TEAE Abdominal pain lower” value (8 mg) was 1 n. The “TEAE Abnormal dreams” value (8 mg) was 0 n, the “TEAE Back pain” value (8 mg) was 0 n and the “TEAE Balance disorder” value (8 mg) was 0 n. For the same molecule, the “TEAE Blood pressure systolic increased” value (8 mg) was 0 n, the “TEAE Cough” value (8 mg) was 0 n and the “TEAE Depressed mood” value (8 mg) was 1 n. For the same molecule, the “TEAE Diarrhoea” value (8 mg) was 2 n, the “TEAE Dizziness” value (8 mg) was 0 n and the “TEAE Euphoric mood” value (8 mg) was 0 n. The “TEAE Feeling of relaxation” value (8 mg) was 0 n, the “TEAE Headache” value (8 mg) was 0 n and the “TEAE Hypervigilance” value (8 mg) was 1 n. For the same molecule, the “TEAE Insomnia” value (8 mg) was 2 n, the “TEAE Nocturia” value (8 mg) was 1 n and the “TEAE Photophobia” value (8 mg) was 1 n. For the same molecule, the “TEAE Pollakiuria” value (8 mg) was 0 n, the “TEAE Salivary hypersecretion” value (8 mg) was 0 n and the “TEAE Visual impairment” value (8 mg) was 0 n. The “TEAE Vomiting” value (8 mg) was 1 n, the “TEAE … Not Related” value (8 mg) was 3 n and the “TEAE by Highest Relationship: Related” value (8 mg) was 2 n. The “TEAE by Highest Severity: Mild” value (8 mg) was 4 n, the “TEAE by Highest Severity: Moderate” value (8 mg) was 1 n and the “TEAE by Highest Severity: Severe” value (8 mg) was 0 n. The “AE Leading to Study Drug Discontinuation” value (15 mg) was 0 n, the “Any SAEs” value (15 mg) was 0 n and the “Any TEAE” value (15 mg) was 3 n. The Death (15 mg) was 0 n, the “TEAE Abdominal pain” value (15 mg) was 0 n and the “TEAE Abdominal pain lower” value (15 mg) was 0 n. The “TEAE Abnormal dreams” value (15 mg) was 0 n, the “TEAE Back pain” value (15 mg) was 0 n and the “TEAE Balance disorder” value (15 mg) was 0 n. The “TEAE Blood pressure systolic increased” value (15 mg) was 0 n, the “TEAE Cough” value (15 mg) was 0 n and the “TEAE Depressed mood” value (15 mg) was 0 n. For the same molecule, the “TEAE Diarrhoea” value (15 mg) was 0 n, the “TEAE Dizziness” value (15 mg) was 3 n and the “TEAE Euphoric mood” value (15 mg) was 0 n. For the same molecule, the “TEAE Feeling of relaxation” value (15 mg) was 0 n, the “TEAE Headache” value (15 mg) was 1 n and the “TEAE Hypervigilance” value (15 mg) was 0 n. The “TEAE Insomnia” value (15 mg) was 1 n, the “TEAE Nocturia” value (15 mg) was 0 n and the “TEAE Photophobia” value (15 mg) was 0 n. The “TEAE Pollakiuria” value (15 mg) was 1 n, the “TEAE Salivary hypersecretion” value (15 mg) was 0 n and the “TEAE Visual impairment” value (15 mg) was 2 n. For the same molecule, the “TEAE Vomiting” value (15 mg) was 0 n, the “TEAE … Not Related” value (15 mg) was 0 n and the “TEAE by Highest Relationship: Related” value (15 mg) was 3 n. For the same molecule, the “TEAE by Highest Severity: Mild” value (15 mg) was 3 n, the “TEAE by Highest Severity: Moderate” value (15 mg) was 0 n and the “TEAE by Highest Severity: Severe” value (15 mg) was 0 n. For the same molecule, the “AE Leading to Study Drug Discontinuation” value (25 mg) was 1 n, the “Any SAEs” value (25 mg) was 0 n and the “Any TEAE” value (25 mg) was 5 n. For the same molecule, the Death (25 mg) was 0 n, the “TEAE Abdominal pain” value (25 mg) was 0 n and the “TEAE Abdominal pain lower” value (25 mg) was 0 n. For the same molecule, the “TEAE Abnormal dreams” value (25 mg) was 0 n, the “TEAE Back pain” value (25 mg) was 1 n and the “TEAE Balance disorder” value (25 mg) was 1 n. For the same molecule, the “TEAE Blood pressure systolic increased” value (25 mg) was 1 n, the “TEAE Cough” value (25 mg) was 0 n and the “TEAE Depressed mood” value (25 mg) was 0 n. The “TEAE Diarrhoea” value (25 mg) was 0 n, the “TEAE Dizziness” value (25 mg) was 3 n and the “TEAE Euphoric mood” value (25 mg) was 1 n. For the same molecule, the “TEAE Feeling of relaxation” value (25 mg) was 1 n, the “TEAE Headache” value (25 mg) was 0 n and the “TEAE Hypervigilance” value (25 mg) was 0 n. The “TEAE Insomnia” value (25 mg) was 3 n, the “TEAE Nocturia” value (25 mg) was 0 n and the “TEAE Photophobia” value (25 mg) was 0 n. For the same molecule, the “TEAE Pollakiuria” value (25 mg) was 2 n, the “TEAE Salivary hypersecretion” value (25 mg) was 1 n and the “TEAE Visual impairment” value (25 mg) was 1 n. The “TEAE Vomiting” value (25 mg) was 0 n, the “TEAE … Not Related” value (25 mg) was 0 n and the “TEAE by Highest Relationship: Related” value (25 mg) was 5 n. For the same molecule, the “TEAE by Highest Severity: Mild” value (25 mg) was 4 n, the “TEAE by Highest Severity: Moderate” value (25 mg) was 1 n and the “TEAE by Highest Severity: Severe” value (25 mg) was 0 n. For the same molecule, the “AE Leading to Study Drug Discontinuation” value (Total (N = 24)) was 1 n, the “Any SAEs” value (Total (N = 24)) was 0 n and the “Any TEAE” value (Total (N = 24)) was 15 n. For the same molecule, the Death (Total (N = 24)) was 0 n, the “TEAE Abdominal pain” value (Total (N = 24)) was 1 n and the “TEAE Abdominal pain lower” value (Total (N = 24)) was 1 n. The “TEAE Abnormal dreams” value (Total (N = 24)) was 1 n, the “TEAE Back pain” value (Total (N = 24)) was 1 n and the “TEAE Balance disorder” value (Total (N = 24)) was 1 n. The “TEAE Blood pressure systolic increased” value (Total (N = 24)) was 1 n, the “TEAE Cough” value (Total (N = 24)) was 1 n and the “TEAE Depressed mood” value (Total (N = 24)) was 1 n. For the same molecule, the “TEAE Diarrhoea” value (Total (N = 24)) was 2 n, the “TEAE Dizziness” value (Total (N = 24)) was 6 n and the “TEAE Euphoric mood” value (Total (N = 24)) was 1 n. For the same molecule, the “TEAE Feeling of relaxation” value (Total (N = 24)) was 1 n, the “TEAE Headache” value (Total (N = 24)) was 1 n and the “TEAE Hypervigilance” value (Total (N = 24)) was 1 n. The “TEAE Insomnia” value (Total (N = 24)) was 6 n, the “TEAE Nocturia” value (Total (N = 24)) was 1 n and the “TEAE Photophobia” value (Total (N = 24)) was 1 n. For the same molecule, the “TEAE Pollakiuria” value (Total (N = 24)) was 3 n, the “TEAE Salivary hypersecretion” value (Total (N = 24)) was 1 n and the “TEAE Visual impairment” value (Total (N = 24)) was 3 n. For the same molecule, the “TEAE Vomiting” value (Total (N = 24)) was 1 n, the “TEAE … Not Related” value (Total (N = 24)) was 5 n and the “TEAE by Highest Relationship: Related” value (Total (N = 24)) was 10 n. The “TEAE by Highest Severity: Mild” value (Total (N = 24)) was 13 n, the “TEAE by Highest Severity: Moderate” value (Total (N = 24)) was 2 n and the “TEAE by Highest Severity: Severe” value (Total (N = 24)) was 0 n. The Tolerability (multiple doses 3 to 25 mg once daily for 10 days) was “well tolerated”.
